Laboratory results reported in US3947589A (priority 1971, dated 1976).
Read-outs that look alike come from different tables or passages of the source.

What was measured:
acute oral toxicity test = details: in vivo
From the text: The results of an acute oral toxicity test of the active ingredient used in the present invention is that its LD50 is about 6 g/kg in the case of N-lauroyl-L-valine. This is an extremely low toxicity.

citrus melanose = test: inhibitory test against Citrus melanose; format: in vivo; details: for pest or weed control at 500 ppm: read-out: Preventive value; for Extent infection: Table 4, untreated 53; for Extent infection / Extent of infection: 500 ppm, about 2-3 weeks after inoculation; for Extent of infection: Table 5, untreated 57
From the text: Experimental example 3 : inhibitory test against Citrus melanose a. Test plant: shoots of about 3 years grown seedlings of citrus "Onshu" (2 - 4 trees planted in about 20 cm claypot) b. Solution used for test
As control fungicide, "Daisen" [trade (trade name, product of Nihon-NohyakuCo., Ltd., wettable powder containing zinc ethylene bis (dithiocarbamate)]was sprayed at 1000 ppm. c. Inoculum and the method of inoculation
In order to prepare suspension of pycnospores, distilled and sterilized water was poured on the culture twigs with citrus melanose in a test tube. The suspension containing about 200 of pycnospores was prepared under the observation of microscope of 150 magnification and then sprayed inoculation on the test plants treated as above. After inoculation, the test plants were placed in the inoculation box at 27°C and relative humidity of above 95% for about 3 days. Then, they were transferred into the greenhouse. […]
d. The method of inspection
About 2 - 3 weeks after inoculation, the entire leaves of shoots was inspected for the development of disease and the state of infection was evaluated on a scale of 0 to 3 as follows:
1 : 1 -- 50 of disease spots
2 : 51 -- 150 of disease spots
3 : above 151 of disease spots
The extent of infection and the preventive value were calculated according to the following equations (I) and (II), respectively. [formula] wherein n1, n2 and n3 are number of leaves inspected to be the states of infection 1, 2 and 3, respectively and N is the total number of leaves. [formula]

[1] = test system: cucumber downy mildew (Pseudoperonospore cubensis); test: inhibitory test against cucumber downy mildew; format: in vivo; details: for pest or weed control at 500 ppm: Cucumis sativus; for Number of leaves infected (outside) / Number of leaves infected (inside): 23rd of May
Protocol: Experimental example 4 : inhibitory test against cucumber downy mildew
Cucumber seeds (variety "Shinhikari No. A") were planted in seed-beds at the biginning of October, three cucumber seeds being planted per seed-bed, and they were grown in a greenhouse made of vinyl resin. This experiment was performed as three-repeated cultivation.
The test plants treated thus were left to spontaneous infection.

[2] = test system: Piricularia oryzae (rice blast); details: 500 ppm
[3] = test system: Piricularia oryzae (rice blast); test: whole plant or invertebrate; details: Pyricularia oryzae, 48 h, read-out: Preventive value
[4] = Table 4, about 2-3 weeks after inoculation
[5] = Table 6, 500 ppm, four sprays, inside of leaves, read-out: Preventive value (inside)
[6] = Table 6, 500 ppm, four sprays, outside of leaves, read-out: Preventive value (outside)
[7] = Table 6, 500 ppm, four sprays, untreated 12
[8] = Table 6, 500 ppm, four sprays, untreated 22
[9] = Table 1, 50 ml per pot, two days after infection, untreated 33.0
[10] = read-out: Preventive value (inside)
[11] = read-out: Preventive value (outside)
[12] = Table 5, about 2-3 weeks after inoculation
[13] = Table 7, 500 ppm, four sprays, untreated 13
[14] = Table 7, 500 ppm, four sprays, untreated 15
[15] = Table 7, 500 ppm, four sprays, inside of leaves, read-out: Preventive value (inside)
[16] = Table 7, 500 ppm, four sprays, outside of leaves, read-out: Preventive value (outside)

In the case of `CCCCCCCCCCCC(=O)N[C@H](C(=O)O)C(C)C` [No. 2, N-lauroyl-L-valine], the LD50 (acute oral toxicity test) is reported as ~6000 mg/kg.

Work on `CCCCCCCCCCCC(=O)NCC(=O)O` [compound 1] yielded a pest or weed control at 500 ppm (citrus melanose; [4]) of 72%, an Extent infection (citrus melanose) of 15% and a pest or weed control at 500 ppm [1, 5] of 73%. The pest or weed control at 500 ppm [1, 6] was 67%, the “Number of leaves infected (outside)” value [1, 7] was 4 and the “Number of leaves infected (inside)” value [1, 8] was 6. For the same compound, the “Average number of disease lesions per leaf” value (from here on “Average number … per leaf”) [2, 9] was 1.7 and the pest or weed control at 500 ppm [3] was 95%.

With `CCCCCCCCCCCC(=O)N[C@H](C(=O)O)C(C)C` [compound 2] the “Average number … per leaf” value [2, 9] was 6.6 and the pest or weed control at 500 ppm [3] was 80%.

`CCCCCCCCCCCC(=O)NC(Cc1ccc([N+](=O)[O-])cc1)C(=O)O` (centres unmarked) [compound 3] showed a pest or weed control at 500 ppm (citrus melanose; [4]) of 50%, an Extent infection (citrus melanose) of 26% and a pest or weed control at 500 ppm [1, 5] of 59%. The pest or weed control at 500 ppm [1, 6] was 50%, the “Number of leaves infected (outside)” value [1, 7] was 6 and the “Number of leaves infected (inside)” value [1, 8] was 9. For the same compound, the “Average number … per leaf” value [2, 9] was 8.9 and the pest or weed control at 500 ppm [3] was 73%.

In the case of `CCCCCCCCCCCCCCCCCC(=O)N[C@@H](Cc1ccccc1)C(=O)O` [compound 4], the pest or weed control at 500 ppm (citrus melanose; [4]) is reported as 60%, the Extent infection (citrus melanose) is reported as 21% and the pest or weed control at 500 ppm [1, 10] is reported as 47%. For the same compound, the pest or weed control at 500 ppm [1, 11] was 42%, the “Number of leaves infected (outside)” value [1, 7] was 7 and the “Number of leaves infected (inside)” value [1, 8] was 10. For the same compound, the “Average number … per leaf” value [2, 9] was 7.3 and the pest or weed control at 500 ppm [3] was 78%.

In the case of `CCCCCCCC/C=C\CCCCCCCC(=O)NCC(=O)O` [compound 5], the “Average number … per leaf” value [2, 9] is reported as 11.0 and the pest or weed control at 500 ppm [3] is reported as 67%.

With `CCCCCCCCCCCCCCCCCC(=O)NCC(=O)O` [compound 6] the pest or weed control at 500 ppm (citrus melanose; [4]) was 68%, the Extent infection (citrus melanose) was 17% and the “Average number … per leaf” value [2, 9] was 6.6. For the same compound, the pest or weed control at 500 ppm [3] was 80%.

In the case of `CCCCCCCCCCCCCCCCCC(=O)NC(C)C(=O)O` (centres unmarked) [compound 7], the pest or weed control at 500 ppm [1, 5] is reported as 64%, the pest or weed control at 500 ppm [1, 6] is reported as 58% and the “Number of leaves infected (outside)” value [1, 7] is reported as 5. The “Number of leaves infected (inside)” value [1, 8] was 8, the “Average number … per leaf” value [2, 9] was 5.9 and the pest or weed control at 500 ppm [3] was 82%.

`CCCCCCCCCCCC(=O)NC(Cc1ccccc1)C(=O)O` (centres unmarked) [compound 8] showed a pest or weed control at 500 ppm (citrus melanose; [4]) of 59%, an Extent infection (citrus melanose) of 22% and a pest or weed control at 500 ppm [1, 5] of 68%. For the same compound, the pest or weed control at 500 ppm [1, 6] was 75%, the “Number of leaves infected (outside)” value [1, 7] was 3 and the “Number of leaves infected (inside)” value [1, 8] was 7. For the same compound, the “Average number … per leaf” value [2, 9] was 11.0 and the pest or weed control at 500 ppm [3] was 67%.

In the case of `CCCCCCCCCCCCCC(=O)NCC(=O)O` [compound 9], the pest or weed control at 500 ppm [1, 5] is reported as 59%, the pest or weed control at 500 ppm [1, 6] is reported as 42% and the “Number of leaves infected (outside)” value [1, 7] is reported as 7. The “Number of leaves infected (inside)” value [1, 8] was 9, the “Average number … per leaf” value [2, 9] was 9.9 and the pest or weed control at 500 ppm [3] was 70%.

With `CCCCCCCCCCCC(=O)N[C@@H](CC(=O)O)C(=O)O` [compound 10] the pest or weed control at 500 ppm (citrus melanose; [4]) was 74%, the Extent infection (citrus melanose) was 14% and the “Average number … per leaf” value [2, 9] was 11.6. For the same compound, the pest or weed control at 500 ppm [3] was 65%.

In the case of `CCCCCCCCCCCC(=O)N[C@H](C(=O)O)[C@@H](C)O` [compound 11], the “Average number … per leaf” value [2, 9] is reported as 7.6 and the pest or weed control at 500 ppm [3] is reported as 77%.

With `CCCCCCCCCC(=O)N[C@@H](Cc1ccccc1)C(=O)O` [compound 12] the pest or weed control at 500 ppm [1, 5] was 73%, the pest or weed control at 500 ppm [1, 6] was 67% and the “Number of leaves infected (outside)” value [1, 7] was 4. The “Number of leaves infected (inside)” value [1, 8] was 6, the “Average number … per leaf” value [2, 9] was 11.6 and the pest or weed control at 500 ppm [3] was 65%.

With `CCCCCCCCCCCC(=O)N[C@@H](CC(C)C)C(=O)O` [compound 13] the pest or weed control at 500 ppm [1, 5] was 59%, the pest or weed control at 500 ppm [1, 6] was 42% and the “Number of leaves infected (outside)” value [1, 7] was 7. For the same compound, the “Number of leaves infected (inside)” value [1, 8] was 9, the “Average number … per leaf” value [2, 9] was 8.9 and the pest or weed control at 500 ppm [3] was 73%.

In the case of `C=CCCCCCCCCC(=O)N[C@@H](CC(C)C)C(=O)O` [compound 14], the pest or weed control at 500 ppm (citrus melanose; [4]) is reported as 65%, the Extent infection (citrus melanose) is reported as 19% and the “Average number … per leaf” value [2, 9] is reported as 5.6. For the same compound, the pest or weed control at 500 ppm [3] was 83%.

With `CCCCCCCCCCCC(=O)N(C)CC(=O)O` [compound 15] the “Average number … per leaf” value [2, 9] was 7.4 and the pest or weed control at 500 ppm [3] was 88%.

For `CCCCCCCCCC(=O)NC(CCSC)C(=O)O` (centres unmarked) [compound 16], the pest or weed control at 500 ppm (citrus melanose; [4]) was 54%, the Extent infection (citrus melanose) was 24% and the “Average number … per leaf” value [2, 9] was 11.0. For the same compound, the pest or weed control at 500 ppm [3] was 67%.

In the case of `CCCCCCCCCCCC(=O)N[C@H](C(=O)OCC)C(C)C` [compound 19], the “Average number … per leaf” value [2, 9] is reported as 7.3 and the pest or weed control at 500 ppm [3] is reported as 78%.

For `CCCCCCCCCCCCCC(=O)N[C@@H](CCC(=O)O)C(=O)O` [compound 20], the “Average number … per leaf” value [2, 9] was 9.9 and the pest or weed control at 500 ppm [3] was 70%.

Work on `CCCCCCCCCCCCCC(=O)N[C@@H](CCCNC(=N)N)C(=O)OCC` [compound 21] yielded a pest or weed control at 500 ppm (citrus melanose; [12]) of 73%, an Extent of infection (citrus melanose) of 15% and a pest or weed control at 500 ppm [1, 10] of 47%. The pest or weed control at 500 ppm [1, 11] was 55%, the “Number of leaves infected (outside)” value [1, 13] was 5 and the “Number of leaves infected (inside)” value [1, 14] was 8. The “Average number … per leaf” value ([2]; Table 2, untreated 34.2) was 8.5 and the pest or weed control at 500 ppm [3] was 75%.

For `CCCCCCCCCCCCCC(=O)N[C@@H](CCCCN)C(=O)OC` [compound 23], the pest or weed control at 500 ppm (citrus melanose; [12]) was 64%, the Extent of infection (citrus melanose) was 21% and the pest or weed control at 500 ppm [1, 15] was 47%. For the same compound, the pest or weed control at 500 ppm [1, 16] was 45%, the “Number of leaves infected (outside)” value [1, 13] was 7 and the “Number of leaves infected (inside)” value [1, 14] was 8. The “Average number … per leaf” value ([2]; Table 2, untreated 34.2) was 6.2 and the pest or weed control at 500 ppm [3] was 82%.

Work on `CCCCCCCCCCCC(=O)N[C@@H](CCCN)C(=O)OC` [compound 24] yielded a pest or weed control at 500 ppm (citrus melanose; [12]) of 68%, an Extent of infection (citrus melanose) of 18% and a pest or weed control at 500 ppm [1, 15] of 47%. The pest or weed control at 500 ppm [1, 16] was 52%, the “Number of leaves infected (outside)” value [1, 13] was 6 and the “Number of leaves infected (inside)” value [1, 14] was 8. The “Average number … per leaf” value ([2]; Table 2, untreated 34.2) was 7.3 and the pest or weed control at 500 ppm [3] was 78%.

With `CCCCCCCCCCCCCC(=O)N[C@@H](Cc1c[nH]cn1)C(=O)OC` [compound 25] the “Average number … per leaf” value ([2]; Table 2, untreated 34.2) was 5.1 and the pest or weed control at 500 ppm [3] was 85%.

In the case of `CCCCCCCCCCCC(=O)N[C@@H](CCCNC(N)=O)C(=O)OC` [compound 26], the “Average number … per leaf” value ([2]; Table 2, untreated 34.2) is reported as 6.2 and the pest or weed control at 500 ppm [3] is reported as 82%.

Compound `CCCCCCCCCCCC(=O)N[C@@H](CCCNC(=N)N)C(=O)OCC` [compound 27] has a pest or weed control at 500 ppm (citrus melanose; [12]) of 75%, an Extent of infection (citrus melanose) of 14% and a pest or weed control at 500 ppm [1, 15] of 40%. For the same compound, the pest or weed control at 500 ppm [1, 16] was 52%, the “Number of leaves infected (outside)” value [1, 13] was 6 and the “Number of leaves infected (inside)” value [1, 14] was 9. The “Average number … per leaf” value ([2]; Table 2, untreated 34.2) was 6.8 and the pest or weed control at 500 ppm [3] was 80%.

For `CCCCCCCCCCCCCCCCCC(=O)N[C@@H](CCCNC(=N)N)C(=O)OCC` [compound 28], the pest or weed control at 500 ppm (citrus melanose; [12]) was 73%, the Extent of infection (citrus melanose) was 15% and the “Average number … per leaf” value ([2]; Table 2, untreated 34.2) was 7.3. For the same compound, the pest or weed control at 500 ppm [3] was 78%.
